Laboratory results reported in PubChem BioAssay (NCI).
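1) Cells in 96-well plates. 2) Compound, 48 h, 5 concentrations. 3) Linear interpolation between surrounding doses. 4) Unreached endpoint = highest concentration. At the GI50, growth is halved. Definition used: TGI = concentration required for complete inhibition of growth.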

Legend:
Test in all cases: NCI-60 cell line screen, 48 h
UACC-257 melanoma = test system: UACC-257 melanoma
SK-MEL-2 melanoma = test system: SK-MEL-2 melanoma
SNB-75 CNS = test system: SNB-75 CNS
DU-145 prostate = test system: DU-145 prostate
MDA-MB-435 = test system: MDA-MB-435
COLO 205 colon = test system: COLO 205 colon
HS 578T breast = test system: HS 578T breast
OVCAR-4 ovarian = test system: OVCAR-4 ovarian
PC-3 prostate = test system: PC-3 prostate
MOLT-4 leukemia = test system: MOLT-4 leukemia

SMILES | GI50 (UACC-257 melanoma) [µM] | TGI (UACC-257 melanoma) [µM] | GI50 (SK-MEL-2 melanoma) [µM] | TGI (SK-MEL-2 melanoma) [µM] | GI50 (SNB-75 CNS) [µM] | TGI (SNB-75 CNS) [µM] | GI50 (DU-145 prostate) [µM] | TGI (DU-145 prostate) [µM] | GI50 (MDA-MB-435) [µM] | TGI (MDA-MB-435) [µM] | GI50 (COLO 205 colon) [µM] | TGI (COLO 205 colon) [µM] | GI50 (HS 578T breast) [µM] | TGI (HS 578T breast) [µM] | GI50 (OVCAR-4 ovarian) [µM] | TGI (OVCAR-4 ovarian) [µM] | GI50 (PC-3 prostate) [µM] | TGI (PC-3 prostate) [µM] | GI50 (MOLT-4 leukemia) [µM] | TGI (MOLT-4 leukemia) [µM]
COc1nc2c(c(=O)n1C)CN(c1ccccc1)C(=O)CN2C | > 100 | > 100 | > 100 | > 100 | 48.9 | > 100 | 61.1 | > 100 | > 100 | > 100 | 40.6 | > 100 | 13 | 73.4 | 71.2 | > 100 | 20 | > 100 | 33.9 | > 100
O=C(O)c1nn(-c2ccc(Cl)cc2)c2c1C(=O)c1ccccc1C2=O |  | > 100 |  | > 100 |  | 62.3 |  | > 100 |  | > 100 |  | > 100 |  | > 100 |  | > 100 |  | > 100 |  | 88
NC(CCl)=NCC12CC3CC(CC(C3)C1)C2 | 1.75 | 5.27 | 2.06 | 7.46 | 2.21 | 15.4 | 0.608 | 3.75 | 0.474 | 7.11 | 1.15 | 3.19 | 4.47 | 42.1 | 1.87 | 17.4 | 2.05 | 13.3 | 0.333 | 1.73
Cn1cc(-c2ncnc3ccc(-c4cnc(Cl)c(NS(C)(=O)=O)c4)cc23)c2ccccc21 | 0.959 | 7.05 | 1.16 | 4.85 | 0.127 | 1.98 | 1.05 | > 100 | 0.514 | 10.8 | 0.829 | 13.1 | 0.14 | 1.64 | 0.921 | 6.99 | 0.361 | 26.1 | 0.491 | 4.89
COc1ccc(-c2oc3ncnc(N)c3c2-c2ccc(NC(=O)Nc3cc(C(F)(F)F)ccc3F)cc2)cc1 | 2.46 | 6.69 | 1.01 | 3.5 | 1.51 | 4.35 | 1.14 | 4.16 | 0.871 | 3.95 | 0.558 | 1.45 | 0.833 | 4.67 | 1.05 | 8.45 | 1.94 | 11.4 | 1.64 | 8.98
O=c1cc(-c2ccccc2)oc2c(O)c(O)ccc12 | 18.6 | 88.5 | 44.9 | > 100 | 28.7 | > 100 | 8.66 | > 100 | 13 | > 100 | 18.3 | 53.9 | 37.2 | > 100 | 3.73 | > 100 | 7.74 | > 100 | 5.09 | > 100
O=C1/C(=C/c2ccc(Cl)cc2)N=C(c2ccccc2)N1c1cc(C(F)(F)F)ccc1Cl | 26.9 | 99.6 | 17.5 | 45.4 | 18.6 | 78.7 | 31.2 | > 100 | 22.7 | 71.4 | 17.5 | 40.7 | 21.4 | 66.5 | 20.2 | 89.7 | 20.8 | 71.8 | 15.5 | 51.2
CCCCCCCCCCCCCCCCCC1=NC(C)(C)CN1C(C)(C)CO | 1.78 | 3.5 | 1.83 | 3.51 | 1.47 | 3.13 | 1.61 | 3.03 | 1.58 | 3.42 | 0.407 | 1.38 | 1.62 | 3.98 | 2.05 | 4.92 | 1.85 | 4.81 | 1.45 | 4.05
N#Cc1ccc2[nH]cc(Cc3c[nH]c4ccc(C#N)cc34)c2c1 | 10.1 | 23.4 | 9.63 | 21 | 20.4 | > 50 | 16.3 | > 50 | 11.4 | 24 | 15.8 | > 50 | 11.4 | 25.7 | 18.5 | > 50 | 9.86 | 27.8 | 7.53 | 19.5
Cc1ccc(NC(=O)CCc2nnc3s/c(=C\C=C\c4ccccc4)c(=O)n23)cc1 |  | > 100 |  | > 91.9 |  | > 100 |  | > 100 |  | > 100 |  | > 100 |  | > 100 |  | > 56.2 |  | > 100 |  | 79.8
OCC#Cc1ccccc1C#Cc1ccc(C#Cc2ccccc2C#CCO)cc1 | 89.5 | > 100 | 36.2 | 79.9 | 85.1 | > 100 | 27.3 | 91.3 | > 100 | > 100 | > 100 | > 100 | 24.3 | 58.7 | 65.8 | > 100 | 30.7 | > 100 | 15.9 | 39.6
O=c1cccccc1O |  | > 100 |  | > 100 |  | > 100 |  | > 100 |  | > 100 |  | > 100 |  | > 100 |  | > 100 |  | > 100 |  | > 100
C/C(=N\N)C(CN1CCOCC1)C(c1ccccc1)c1c(O)c2ccccc2oc1=O (stereo not drawn) |  | > 100 |  | > 100 |  | > 100 |  | > 100 |  | > 100 |  | > 63.5 |  | > 100 |  | > 100 |  | > 100 |  | > 80.8
CCCCNC(=O)Oc1ccc(/C(=C(\C)c2ccc(OC)cc2)c2ccc(OCCN3CCCCC3)cc2)cc1 | 2.72 | 6.71 | 4.65 | 17.4 | 6.91 | 25 | 6.5 | 21.4 | 1.78 | 3.67 | 2.07 | 4.63 | 2.14 | 4.82 | 2.29 | 8.2 | 2.35 | 7.03 | 3.12 | 71.9
C#Cc1cccc(Nc2nc(C)nc3cc(NC(=O)CCl)ccc23)c1 | 4.07 | 7.62 | 3.9 | 7.9 | 1.09 | 4.34 | 3.67 | 7.08 | 1.49 | 4.75 | 3.26 | 7.41 | 2.8 | 10.2 | 1.83 | 6.05 | 2.53 | 6.16 | 0.719 | 2.27
COc1ccc2c(c1)c1ccc3c(c1n2C)C(=O)C=CC3=O |  | 24.9 |  | 34.7 |  | 68.9 |  | 15 |  | 22.7 |  | 19.8 |  | 28.1 |  | 15.6 |  | 26.2 |  | 4.5
COc1cc(OCCCN2CCCC2)ccc1Nc1ncc(Cl)c(Nc2ccccc2P(C)(C)=O)n1 | 6.42 | 24 | 2.24 | 6.21 | 2.55 | 11.8 | 1.91 | 36.4 | 1.65 | > 42.6 | 1.08 | 2.81 | 2.22 | 10 | 1.52 | 11.7 | 4.11 | 49.6 | 3.95 | 26
CCCCCCCC(=O)Nc1nc2[nH]c(CN3CCN(Cc4cccc(I)c4)CC3)c(CN3CCN(Cc4cccc(I)c4)CC3)c2c(=O)[nH]1 | 1.14 | 2.44 | 0.97 | 2.05 | 0.691 | 1.35 | 0.913 | 1.73 | 0.823 | 1.55 | 0.972 | 1.97 | 0.882 | 1.95 | 0.841 | 1.62 | 0.837 | 1.63 | 0.934 | 2.59
Cn1cnc(SC2=CC(=O)C=C3S[C@H]4C[C@@]23c2c(c(O)c3c5c2=NCCC=5C=N3)N4)c1CC(N)C(=O)O (stereo partly drawn) | 11.6 | 23.8 | 9.62 | 24.7 |  | 34.5 |  | 32 | 1.88 | 3.44 | 1.53 | 3.01 | 39.7 | 96.1 | 13.4 | 26.2 | 13.4 | 51.8 | 2.99 | 8.98
C[C@]12CC[C@@H]3c4ccc(O)cc4CC[C@H]3[C@@H]1CC(Cc1ccccc1)(Cc1ccccc1)C2=O | 18.4 | 39.5 | 24.8 | 53.6 | 16.7 | 34.5 | 15.1 | 30.5 | 20.7 | 57 | 13.4 | 31.9 | 30.9 | > 100 | 12.7 | 27.3 | 4.11 | 15.5 | 9.11 | 32.8
